# What was measured:
# [1] = biological target: T1, CGRP receptor (SK-N-MC membrane) (Homo sapiens, UniProt O60894+Q16602); assay: I125-CGRP binding displacement assay on purified SK-N-MC membrane
# T1 construct: Purified SK-N-MC membrane was purchased from Perkin Elmer; purchased Perkin Elmer; host or cells: SK-N-MC membrane
# Description: Purified SK-N-MC membrane was purchased from Perkin Elmer. The membrane was thawed quickly and placed on ice. The compounds were diluted with CGRP binding solution (25 mM Tris-HCl, pH7.4, 5 mM MgCl2, 0.1% BSA and 0.05% Tween). The membrane was diluted 1:20 with the binding solution and homogenized with Tissue Matster-50 Homogenizer (Omni International) for 30 sec. The homogenized membrane was added to compounds in the binding solution. […] After 2 hour incubation at room temperature, the reaction was stopped by rapid filtration through 0.5% PEI treated GF/C filter plate (Perkin Elmer) and the filter plate was washed with ice-cold washing solution (50 mM Tris HCl, pH7.4, 5 mM MgCl2 and 0.1% BSA) using cell harvestor (Tomtec). The radioactivity of the filter plates were read on Topcount (Packard). The nonspecific binding was determined in the control reaction where 1 uM unlabelled CGRP was preincubated with the membrane prior to I125-CGRP addition. The total binding was determined in the control reaction of the membrane and I125-CGRP in the absence of compound. The percent displacement of I125-CGRP with compounds was calculated using nonspecific and total binding controls. The curve fitting was carried out using MOD3.
# endogenous CGRP receptor = endogenous CGRP receptor (Homo sapiens, UniProt O60894+Q16602); assay: CGRP functional antagonism using SK-N-MC-BLA (4C10), β-lactamase transcriptional reporter assay; type: cell-based; details: SK-N-MC (4C10) cells, inhibition of β-lactamase expression in the presence of 200 pM CGRP
# Sequence of endogenous CGRP receptor (Q16602 23-461): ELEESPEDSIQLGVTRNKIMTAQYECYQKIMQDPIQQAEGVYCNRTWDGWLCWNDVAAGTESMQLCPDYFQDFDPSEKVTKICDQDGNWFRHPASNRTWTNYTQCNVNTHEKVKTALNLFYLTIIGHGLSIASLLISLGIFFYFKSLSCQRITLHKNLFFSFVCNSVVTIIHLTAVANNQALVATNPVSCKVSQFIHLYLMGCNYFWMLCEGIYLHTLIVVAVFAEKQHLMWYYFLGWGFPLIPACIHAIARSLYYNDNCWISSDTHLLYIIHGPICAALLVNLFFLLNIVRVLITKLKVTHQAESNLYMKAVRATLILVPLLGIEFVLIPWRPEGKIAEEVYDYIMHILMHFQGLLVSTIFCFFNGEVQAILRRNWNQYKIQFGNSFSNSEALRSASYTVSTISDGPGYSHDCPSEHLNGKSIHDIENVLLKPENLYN
# Sequence of endogenous CGRP receptor (O60894 27-148): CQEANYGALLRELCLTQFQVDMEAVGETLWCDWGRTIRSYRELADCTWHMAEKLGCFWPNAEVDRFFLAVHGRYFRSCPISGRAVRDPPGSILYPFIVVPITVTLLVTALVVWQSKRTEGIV
# T1 sequence (Q16602 23-461): as the sequence (Q16602 23-461) above
# T1 sequence (O60894 27-148): as the sequence (O60894 27-148) above
Ki [1],IC50 (endogenous CGRP receptor),SMILES
< 1000 nM,< 1000 nM,O=C(CC1SC(c2ccccc2)N(CC2CCCO2)C1=O)N1CCC(N2Cc3ccccc3NC2=O)CC1 (centres unmarked) [Compound 113]
< 1000 nM,< 1000 nM,CC(C)(C)CCN1C(=O)C(CC(=O)N2CCC(N3Cc4ccccc4NC3=O)CC2)SC1c1ccccc1-n1cccn1 (centres unmarked) [Compound 115]
< 1000 nM,1000 to 5000 nM,C#CCN1C(=O)C(CC(=O)N2CCC(N3Cc4ccccc4NC3=O)CC2)SC1c1ccccc1 (centres unmarked) [Compound 116]
< 1000 nM,1000 to 5000 nM,CC(C)CCN1C(=O)C(CC(=O)N2CCC(N3Cc4ccccc4NC3=O)CC2)[S+]([O-])C1c1ccccc1 (centres unmarked) [Compound 118]
< 1000 nM,< 1000 nM,CC(C)CCN1C(=O)C(CC(=O)N2CCC(N3CCc4ccccc4NC3=O)CC2)SC1c1ccccc1N1CCC(O)CC1 (centres unmarked) [Compound 120]
< 1000 nM,> 5000 nM,CC(C)CCN1C(=O)C(CC(=O)N2CCC(N3Cc4ccccc4NC3=O)CC2)S(=O)(=O)C1c1ccccc1 (centres unmarked) [Compound 122]
> 5000 nM,1000 to 5000 nM,CC(C)CCN1C(=O)C(CC(=O)N2CCC(n3cc(-c4ccccc4)[nH]c3=O)CC2)SC1c1ccc(F)c(F)c1 (centres unmarked) [Compound 127]
< 1000 nM,1000 to 5000 nM,O=C(CC1SC(c2ccccc2)N(CCc2ccccn2)C1=O)N1CCC(N2Cc3ccccc3NC2=O)CC1 (centres unmarked) [Compound 128]
< 1000 nM,< 1000 nM,Cc1cc(C2SC(CC(=O)N3CCC(N4Cc5ccccc5NC4=O)CC3)C(=O)N2CC2CCCCC2)cc2cn[nH]c12 (centres unmarked) [Compound 145]
< 1000 nM,< 1000 nM,O=C(CC1SC(c2ccccc2)N(CC2CCCCC2)C1=O)N1CCC(N2CCc3ccccc3NC2=O)CC1 (centres unmarked) [Compound 147]
< 1000 nM,1000 to 5000 nM,CC(C)CCN1C(=O)[C@H](CC(=O)N2CCC(N3Cc4ccccc4NC3=O)CC2)SC1c1ccccn1 (some centres unmarked) [Compound 148]
< 1000 nM,< 1000 nM,CC(C)CCN1C(=O)C(CC(=O)N2CCC(N3CCc4ccccc4NC3=O)CC2)SC1c1ccccc1F (centres unmarked) [Compound 149]
< 1000 nM,< 1000 nM,CC(C)(C)CCN1C(=O)C(CC(=O)N2CCC(N3CCc4ccccc4NC3=O)CC2)SC1c1ccccc1N1CCC(O)CC1 (centres unmarked) [Compound 150]
< 1000 nM,< 1000 nM,CCOCCCN1C(=O)C(CC(=O)N2CCC(N3Cc4ccccc4NC3=O)CC2)SC1c1ccccc1 (centres unmarked) [Compound 159]
< 1000 nM,< 1000 nM,CC(C)(C)CCN1C(=O)C(CC(=O)N2CCC(N3Cc4ccccc4NC3=O)CC2)SC1c1ccccc1N1CCOCC1 (centres unmarked) [Compound 160]
< 1000 nM,1000 to 5000 nM,CC(C)CCN1C(=O)C(CC(=O)N2CCC(N3Cc4ccccc4NC3=O)CC2)SC1c1cccc(OC(F)(F)F)c1 (centres unmarked) [Compound 169]
< 1000 nM,< 1000 nM,CC(C)CCN1C(=O)C(CC(=O)N2CCC(N3Cc4ccccc4NC3=O)CC2)SC1c1ccccc1F (centres unmarked) [Compound 170]
< 1000 nM,< 1000 nM,Cc1ccccc1C1SC(CC(=O)N2CCC(N3CCc4ccccc4NC3=O)CC2)C(=O)N1CCC(C)C (centres unmarked) [Compound 171]
< 1000 nM,< 1000 nM,Cc1ccccc1C1SC(CC(=O)N2CCC(N3Cc4ccccc4NC3=O)CC2)C(=O)N1CCC(C)C (centres unmarked) [Compound 172]
< 1000 nM,< 1000 nM,CC(C)CCN1C(=O)C(CC(=O)N2CCC(N3Cc4ccccc4NC3=O)CC2)SC12CCSCC2 (centres unmarked) [Compound 174]
< 1000 nM,< 1000 nM,N#Cc1ccccc1C1SC(CC(=O)N2CCC(N3CCc4ccccc4NC3=O)CC2)C(=O)N1CC1CCCCC1 (centres unmarked) [Compound 175]
< 1000 nM,1000 to 5000 nM,CC(C)CCN1C(=O)[C@H](CC(=O)N2CCC(N3Cc4ccccc4NC3=O)CC2)SC1c1ccccn1 (some centres unmarked) [Compound 176]

Ki [1],IC50 (endogenous CGRP receptor),SMILES
< 1000 nM,< 1000 nM,CC(C)CCN1C(=O)C(CC(=O)N2CCC(N3Cc4ccccc4NC3=O)CC2)SC1c1cccnc1 (centres unmarked) [Compound 182]
< 1000 nM,< 1000 nM,CC(C)CCN1C(=O)C(CC(=O)N2CCC(N3CCc4ccccc4NC3=O)CC2)SC1c1ccccc1-n1cccn1 (centres unmarked) [Compound 183]
< 1000 nM,1000 to 5000 nM,O=C(CC1SC(c2ccccc2)N(c2ccccc2)C1=O)N1CCC(N2Cc3ccccc3NC2=O)CC1 (centres unmarked) [Compound 187]
< 1000 nM,< 1000 nM,CC(C)CCN1C(=O)C(CC(=O)N2CCC(N3Cc4ccccc4NC3=O)CC2)SC1C1CCCC1 (centres unmarked) [Compound 188]
1000 to 5000 nM,> 5000 nM,O=C(CC1SC(Cc2ccccc2)N(CC(F)(F)F)C1=O)N1CCC(N2Cc3ccccc3NC2=O)CC1 (centres unmarked) [Compound 190]
< 1000 nM,< 1000 nM,CC(C)CCN1C(=O)C(CC(=O)N2CCC(N3CCc4ccccc4NC3=O)CC2)SC1c1c(F)cccc1C(F)(F)F (centres unmarked) [Compound 194]
> 5000 nM,1000 to 5000 nM,CC(C)CCN1C(=O)C(CC(=O)N2CCC(n3cc(-c4ccccc4)[nH]c3=O)CC2)SC12CCCCC2 (centres unmarked) [Compound 195]
< 1000 nM,< 1000 nM,CN(C)c1ccccc1C1SC(CC(=O)N2CCC(N3Cc4ccccc4NC3=O)CC2)C(=O)N1CCC(C)(C)C (centres unmarked) [Compound 198]
< 1000 nM,< 1000 nM,CC(C)CCN1C(=O)C(CC(=O)N2CCC(N3Cc4ccccc4NC3=O)CC2)SC1c1ccc(F)c(F)c1 (centres unmarked) [Compound 202]
< 1000 nM,1000 to 5000 nM,CC(C)CCN1C(=O)C(CC(=O)N2CCC(N3Cc4ccccc4NC3=O)CC2)S(=O)(=O)C1c1ccc(F)cc1F (centres unmarked) [Compound 203]
1000 to 5000 nM,1000 to 5000 nM,Cc1ccc(C2SC(CC(=O)N3CCC(N4Cc5ccccc5NC4=O)CC3)C(=O)N2CCC(C)C)cc1C (centres unmarked) [Compound 204]
< 1000 nM,< 1000 nM,O=C(CC1SC(c2ccccc2)N(Cc2ccc(F)cc2)C1=O)N1CCC(N2Cc3ccccc3NC2=O)CC1 (centres unmarked) [Compound 208]
< 1000 nM,1000 to 5000 nM,CN(C)c1ccccc1C1SC(CC(=O)N2CCC(N3Cc4ccccc4NC3=O)CC2)C(=O)N1CCC(C)(C)C (centres unmarked) [Compound 211]
< 1000 nM,< 1000 nM,CC(C)CCN1C(=O)C(CC(=O)N2CCC(N3Cc4ccccc4NC3=O)CC2)SC1c1ccc(F)cc1F (centres unmarked) [Compound 212]
< 1000 nM,< 1000 nM,COC(=O)[C@@H](CC(C)C)N1C(=O)C(CC(=O)N2CCC(N3CCc4ccccc4NC3=O)CC2)SC1c1ccccc1 (some centres unmarked) [Compound 225]
< 1000 nM,1000 to 5000 nM,CC(C)CC1SC(CC(=O)N2CCC(N3Cc4ccccc4NC3=O)CC2)C(=O)N1CC(F)(F)F (centres unmarked) [Compound 226]
< 1000 nM,< 1000 nM,CC(C)CCN1C(=O)C(CC(=O)N2CCC(N3Cc4ccccc4NC3=O)CC2)SC1c1ccccc1C#N (centres unmarked) [Compound 227]
1000 to 5000 nM,> 5000 nM,O=C(CC1SC(c2ccccc2)N(C2CC2)C1=O)N1CCC(N2Cc3ccccc3NC2=O)CC1 (centres unmarked) [Compound 230]
< 1000 nM,1000 to 5000 nM,O=C(CC1SC(c2ccccc2)N(CCc2ccncc2)C1=O)N1CCC(N2Cc3ccccc3NC2=O)CC1 (centres unmarked) [Compound 236]
> 5000 nM,< 1000 nM,CC(C)CCN1C(=O)C(CC(=O)N2CCC(n3cc(-c4ccccc4)[nH]c3=O)CC2)SC1c1ccc(F)cc1F (centres unmarked) [Compound 237]
< 1000 nM,1000 to 5000 nM,CC(C)CCN1C(=O)C(CC(=O)N2CCC(N3Cc4ccccc4NC3=O)CC2)SC1c1cccc(OC(F)(F)C(F)F)c1 (centres unmarked) [Compound 240]

# Source: patent US8163737B2 (Vertex Pharmaceuticals Incorporated, priority 2006, dated 2012)
